Laboratory results reported in ChEMBL document CHEMBL1124148 (J Med Chem, 1988).

Experiments:
Dihydrofolate reductase = biological target: T1, Dihydrofolate reductase (Mus musculus, UniProt P00375)
T1 sequence (P00375 whole entry): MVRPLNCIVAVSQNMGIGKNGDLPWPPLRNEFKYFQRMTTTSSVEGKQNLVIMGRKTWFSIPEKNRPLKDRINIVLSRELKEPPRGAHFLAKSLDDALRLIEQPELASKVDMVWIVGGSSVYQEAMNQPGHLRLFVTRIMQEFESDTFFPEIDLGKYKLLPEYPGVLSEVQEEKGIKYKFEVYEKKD
Description: Inhibition of dihydrofolate reductase (DHFR) from murine leukemia cells

L1210 = experiment: Inhibitory concentration against growth of L1210 cell line; assay type: functional, cell-based; settings: Mus musculus
L1210 ( R81) = experiment: Inhibitory concentration against growth of L1210/R81 cell line; assay type: functional, cell-based; settings: Mus musculus
[1] = Inhibition of FPGS from mouse liver in the presence of folic acid; assay type: functional
[2] = Cell-growth inhibition against SCC25 cell line; assay type: functional, cell-based; settings: Homo sapiens, SCC-25
[3] = Cell-growth inhibition against SCC15 cell line; assay type: functional, cell-based; settings: Homo sapiens, SCC-15
[4] = Cell-growth inhibition against SCC25/R1 cell line; assay type: functional, cell-based; settings: Homo sapiens, SCC-25
[5] = Cell-growth inhibition against SCC15/R1 cell line; assay type: functional, cell-based; settings: Homo sapiens, SCC-15
SCC-15 [6] = experiment: Inhibitory concentration against growth of SCC15 cell line; assay type: functional, cell-based; settings: Homo sapiens
SCC-25 [7] = experiment: Inhibitory concentration against growth of SCC25/R1 cell line; assay type: functional, cell-based; settings: Homo sapiens
SCC-15 [8] = experiment: Inhibitory concentration against growth of SCC15/R1 cell line; assay type: functional, cell-based; settings: Homo sapiens
SCC-25 [9] = experiment: Inhibitory concentration against growth of SCC25 cell line; assay type: functional, cell-based; settings: Homo sapiens

SMILES	IC50 (Dihydrofolate reductase) [µM]	IC50 (L1210) [µM]	IC50 (L1210 ( R81)) [µM]	Ki [1] [µM]	other results
CC(=O)NCCCC(NC(=O)c1ccc(N(C=O)Cc2cnc3nc(N)nc(N)c3n2)cc1)C(=O)O (stereo not given)	0.053	0.41	230	–	–
CC(=O)NCCCC(NC(=O)c1ccc(NCc2cnc3nc(N)nc(N)c3n2)cc1)C(=O)O (stereo not given)	0.028	0.017	81	68	–
Nc1nc(N)c2nc(CN(C=O)c3ccc(C(=O)NC(CCCNC(=O)c4ccc(Cl)cc4)C(=O)O)cc3)cnc2n1 (stereo not given)	0.015	0.2	> 200	> 100	–
Nc1nc(N)c2nc(CN(C=O)c3ccc(C(=O)NC(CCCNC(=O)CCC(=O)O)C(=O)O)cc3)cnc2n1 (stereo not given)	–	–	–	> 100	–
NCCCC(NC(=O)c1ccc(NCc2cnc3nc(N)nc(N)c3n2)cc1)C(=O)O (stereo not given)	–	–	–	0.15	–
NCCCC(NC(=O)c1ccc(N(C=O)Cc2cnc3nc(N)nc(N)c3n2)cc1)C(=O)O (stereo not given)	–	–	–	0.65	–
Nc1nc(N)c2nc(CN(C=O)c3ccc(C(=O)NC(CCCNC(=O)c4ccc(Cl)c(Cl)c4)C(=O)O)cc3)cnc2n1 (stereo not given)	0.056	3.2	> 200	–	–
Nc1nc(N)c2nc(CN(C=O)c3ccc(C(=O)NC(CCCNC(=O)c4ccccc4)C(=O)O)cc3)cnc2n1 (stereo not given)	0.034	0.02	156	> 1000	–
CN(Cc1cnc2nc(N)nc(N)c2n1)c1ccc(C(=O)NC(CCC(=O)OC(C)(C)C)C(=O)O)cc1 (stereo not given)	–	–	–	–	IC50 [2]: 0.4 µM; IC50 [3]: 0.6 µM; IC50 [4]: 0.78 µM; IC50 [5]: 1.3 µM
CN(Cc1cnc2nc(N)nc(N)c2n1)c1ccc(C(=O)N[C@@H](CCC(=O)O)C(=O)O)cc1 [METHOTREXATE]	–	–	200	–	IC50 (SCC-15 [6]): 0.038 µM; IC50 (SCC-25 [7]): 0.15 µM; IC50 (SCC-15 [8]): 0.58 µM; IC50 (SCC-25 [9]): 0.0075 µM

Further lines, with some results ahead:

IC50 (Dihydrofolate reductase) [µM]	IC50 (L1210) [µM]	IC50 (L1210 ( R81)) [µM]	Ki [1] [µM]	SMILES	other results
–	0.00075	–	–	Nc1nc(N)c2nc(CNc3ccc(C(=O)NC(CCCNC(=O)c4ccccc4C(=O)O)C(=O)O)cc3)cnc2n1 (stereo not given)	IC50 [2]: 0.00096 µM; IC50 [3]: 0.0011 µM; IC50 [4]: 0.0013 µM; IC50 [5]: 0.004 µM
0.045	0.032	–	–	Nc1nc(N)c2nc(CNc3ccc(C(=O)N[C@@H](CCCNC(=O)c4ccc(Cl)c(Cl)c4)C(=O)O)cc3)cnc2n1	–
0.028	0.0032	27	–	Nc1nc(N)c2nc(CNc3ccc(C(=O)NC(CCCNC(=O)c4ccc(Cl)cc4)C(=O)O)cc3)cnc2n1 (stereo not given)	–
–	–	–	44	Nc1nc(N)c2nc(CNc3ccc(C(=O)NC(CCCNC(=O)CCC(=O)O)C(=O)O)cc3)cnc2n1 (stereo not given)	–
0.027	0.00089	17	> 100	Nc1nc(N)c2nc(CNc3ccc(C(=O)NC(CCCNC(=O)c4ccccc4)C(=O)O)cc3)cnc2n1 (stereo not given)	–
